{
  "source": "patent US10238680B2",
  "about": "“D-amino acid phosphoramidate pronucleotides of halogeno pyrimidine compounds for liver disease” (priority 2013, dated 2019)",
  "key": {"[1]": {"molecular_target": "T1, wild-type HCV genotype 1b NS5B polymerase (Hepatitis C virus genotype 1b, UniProt Q9WMX2)", "T1 construct": "approximately 65 kDa HCV genotype 1b NS5B protein were used to generate recombinant HCV polymerases (with a deletion of the 21 carboxy terminal amino acids); made in house", "test": "HCV polymerase enzyme assay, wild-type", "assay_type": "biochemical", "source_text": "Test compounds in the form of nucleoside triphosphates were examined for inhibitory activity against purified HCV polymerase in a standard assay. Bacterial expression constructs encoding the approximately 65 kDa HCV genotype 1b NS5B protein were used to generate recombinant HCV polymerases (with a deletion of the 21 carboxy terminal amino acids). The wild-type genotype 1b protein was expressed and purified for use in the enzymatic activity assay.\nThe enzymatic activity assay measured the inhibitory effect of increasing concentrations of test compound on the incorporation of α-[^33P]-labeled nucleotide into trichloroacetic acid-precipitable material. Recombinant polymerase and synthetic RNA template were combined in reaction buffer containing three unlabeled ribonucleoside triphosphates, one α-[^33P]-labeled ribonucleosidee triphosphate and eight concentrations of test compound in three-fold dilutions. Reactions were incubated for two hours at 30° C.\nReactions were terminated by the addition of ice-cold trichloroacetic acid and sodium pyrophosphate to promote precipitation of newly-synthesized ribonucleic acid. Precipitable material from the reactions was collected by filtration onto 96-well filter plates, washed extensively with water, and quantified by liquid scintillation.\nThe inhibitory activity of test compounds was determined by fitting results to dose-response curves using XLfit software."}, "HCV polymerase S282T": {"molecular_target": "T2, HCV polymerase S282T (Hepatitis C virus genotype 1b, UniProt Q9WMX2, S2701T)", "T2 construct": "approximately 65 kDa HCV genotype 1b NS5B protein were used to generate recombinant HCV polymerases (with a deletion of the 21 carboxy terminal amino acids); made in house", "test": "HCV polymerase enzyme assay, S282T", "assay_type": "biochemical"}},
  "data": [
    {"smiles": "C[C@@]1(Cl)[C@H](O)[C@@H](COP(=O)(O)OP(=O)(O)OP(=O)(O)O)O[C@H]1n1cc(F)c(=O)[nH]c1=O", "note": "[Compound 301]", "values": [
      {"measurement": "IC50", "setting": "[1]", "result": "250 to 1000", "unit": "nM"}
    ]},
    {"smiles": "C[C@@]1(O)[C@H](O)[C@@H](COP(=O)(O)OP(=O)(O)OP(=O)(O)O)O[C@H]1n1cc(F)c(N)nc1=O", "note": "[Compound 302]", "values": [
      {"measurement": "IC50", "setting": "[1]", "result": "< 250", "unit": "nM"}
    ]},
    {"smiles": "C[C@@]1(Cl)[C@H](O)[C@@H](COP(=O)(O)OP(=O)(O)OP(=O)(O)O)O[C@H]1n1cc(F)c(N)nc1=O", "note": "[Compound 303]", "values": [
      {"measurement": "IC50", "setting": "[1]", "result": "250 to 1000", "unit": "nM"}
    ]},
    {"smiles": "C[C@@]1(F)[C@H](O)[C@@H](COP(=O)(O)OP(=O)(O)OP(=O)(O)O)O[C@H]1n1cc(F)c(=O)[nH]c1=O", "note": "[Compound 304]", "values": [
      {"measurement": "IC50", "setting": "[1]", "result": "< 250", "unit": "nM"},
      {"measurement": "IC50", "setting": "HCV polymerase S282T", "result": "1000 to 10000", "unit": "nM"}
    ]}
  ]
}
